Laboratory results taken from patent US20050101595A1, “N-containing cycloalkyl-substituted amino-thiazole derivatives and pharmaceutical compositions for inhibiting cell proliferation and methods for their use” (PFIZER INC., priority 2003, published 2005).

Legend:
[1] = target: CDK2/Cyclin A (Homo sapiens, UniProt P24941); experiment: Inhibition of CDK2/Cyclin A Retinoblastoma Kinase Activity; assay type: biochemical; settings: read-out: % inhibition of CDK2 (@ 0.05 μM), compound at 0.05 μM
Description: Cyclin-dependent kinase activity was measured by quantifying the enzyme-catalyzed, time-dependent incorporation of radioactive phosphate from [^32P]ATP or [^33P]ATP into a protein substrate. Unless noted otherwise, assays were performed in 96-well plates in a total volume of 50 μL, in the presence of 10 mM HEPES (N-[2-hydroxyethyl]piperazine-N′-[2-ethanesulfonic acid]) (pH 7.4), 10 mM MgCl2, 25 μM adenosine triphosphate (ATP), 1 mg/mL ovalbumin, 5 μg/mL leupeptin, 1 mM dithiothreitol, 10 mM β-glycerophosphate, 0.1 mM sodium vanadate, 1 mM sodium fluoride, 2.5 mM ethylene glycol-bis(β-aminoethyl ether)-N,N,N′N′-tetraacetic acid (EGTA), 2% (v/v) dimethylsulfoxide, and 0.03-0.4 μCi [^32/33P]ATP per reaction. Reactions were initiated with enzyme, incubated at 30° C., and terminated after 20 minutes by the addition of ethylenediaminetetraacetic acid (EDTA) to 250 mM. The phosphorylated substrate was then captured on a nitrocellulose or phosphocellulose membrane using a 96-well filtration manifold, and unincorporated radioactivity was removed by repeated washing with 0.85% phosphoric acid. Radioactivity was quantified by exposing the dried membranes to a phosphorimager.
Inhibition was measured relative to control wells that contained all reaction components including 2% (v/v) DMSO but no compound, after subtraction of background radioactivity measured in the absence of enzyme. Apparent Ki values of discrete compounds were measured by assaying enzyme activity in the presence of different inhibitor compound concentrations and subtracting the background radioactivity measured in the absence of enzyme. The kinetic parameters (kcat, Km for ATP) were measured for each enzyme under the usual assay conditions by determining the dependence of initial rates on ATP concentration. Inhibition data were fit to an equation for competitive inhibition using Kaleidagraph (Synergy Software), or were fit to an equation for competitive tight-binding inhibition using the software KineTic (BioKin, Ltd.).
Inhibition of CDK2/Cyclin A Retinoblastoma Kinase Activity:
CDK2 was purified using published methodology (Rosenblatt et al., “Purification and Crystallization of Human Cyclin-dependent Kinase 2,” J. Mol. Biol., vol. 230, 1993, pp. 1317-1319) from insect cells that had been infected with a baculovirus expression vector. […] A complex of CDK2 and proteolyzed cyclin A was prepared and purified by gel filtration. The substrate for this assay was the same Rb substrate fragment used for the CDK4 assays, and the methodology of the CDK2/delta cyclin A and the CDK4/delta cyclin D3 assays was essentially the same, except that CDK2 was present at 10 nM or 19 nM. The duration of the assay was 60 or 75 minutes, during which the time-dependence of product formation was linear and initial rate conditions were met. And, the percent inhibitions of the compounds of Example O through Example R were calculated as described above and shown in Table 2.

[2] = system: HCT-116 cell line; experiment: Inhibition of cell growth, tetrazolium salt (MTT) assay; assay type: cell-based; settings: Homo sapiens, HCT-116, HCT-116 cells; MTT; compound at 0.175 uM
Outline: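 First, cells were seeded in McCoy's 5A medium and held 4 h. Next, inhibitor concentrations in 0.5% (v/v) DMSO were applied for three to five days at 37° C, 5% CO2. Finally, after 4 h with 0.2 mg/mL MTT and medium removal, solubilized formazan was measured at 540 nm.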

Structure (SMILES)	inhibition at 0.05 µM [1] [%]	inhibition at 0.175 µM [2] [%]
CN(CCC#N)CCCS(=O)(=O)N1CCC(Nc2nc(N)c(C(=O)c3c(F)cccc3F)s2)CC1 [Example V66]	82	10
Nc1nc(NC2CCN(S(=O)(=O)CCCNCCc3cccs3)CC2)sc1C(=O)c1c(F)cccc1F [Example V76]	89	44
Nc1nc(NC2CCN(S(=O)(=O)CCCN(CCO)CCO)CC2)sc1C(=O)c1c(F)cccc1F [Example V78]	80	7
Cc1cccc(CNCCCS(=O)(=O)N2CCC(Nc3nc(N)c(C(=O)c4c(F)cccc4F)s3)CC2)c1 [Example V79]	93	76
Cc1ccc(CNCCCS(=O)(=O)N2CCC(Nc3nc(N)c(C(=O)c4c(F)cccc4F)s3)CC2)cc1 [Example V80]	91	21
CN(CCCS(=O)(=O)N1CCC(Nc2nc(N)c(C(=O)c3c(F)cccc3F)s2)CC1)Cc1ccco1 [Example V82]	88	60
Nc1nc(NC2CCN(S(=O)(=O)CCCNc3nnn[nH]3)CC2)sc1C(=O)c1c(F)cccc1F [Example V84]	24	0
CCCCCNCCCS(=O)(=O)N1CCC(Nc2nc(N)c(C(=O)c3c(F)cccc3F)s2)CC1 [Example V89]	85	42
Nc1nc(NC2CCN(S(=O)(=O)CCCNCCCCO)CC2)sc1C(=O)c1c(F)cccc1F [Example V90]	79	21
Nc1nc(NC2CCN(S(=O)(=O)CCCNCCc3ccncc3)CC2)sc1C(=O)c1c(F)cccc1F [Example V94]	87	0
CN(C)CCN(C)CCCS(=O)(=O)N1CCC(Nc2nc(N)c(C(=O)c3c(F)cccc3F)s2)CC1 [Example V95]	70	3
CC(C)OCCCNCCCS(=O)(=O)N1CCC(Nc2nc(N)c(C(=O)c3c(F)cccc3F)s2)CC1 [Example V96]	84	10
CCC(COC)NCCCS(=O)(=O)N1CCC(Nc2nc(N)c(C(=O)c3c(F)cccc3F)s2)CC1 (stereo not drawn) [Example V97]	81	28
CCOCCNCCCS(=O)(=O)N1CCC(Nc2nc(N)c(C(=O)c3c(F)cccc3F)s2)CC1 [Example V98]	81	21
Nc1nc(NC2CCN(S(=O)(=O)CCCNCc3cccc(F)c3)CC2)sc1C(=O)c1c(F)cccc1F [Example V100]	91	88
CCCN(CCC#N)CCCS(=O)(=O)N1CCC(Nc2nc(N)c(C(=O)c3c(F)cccc3F)s2)CC1 [Example V105]	84	0
CCCN(CCO)CCCS(=O)(=O)N1CCC(Nc2nc(N)c(C(=O)c3c(F)cccc3F)s2)CC1 [Example V106]	82	11

The next lines start with results.

inhibition at 0.05 µM [1] [%]	Structure (SMILES)	inhibition at 0.175 µM [2] [%]
79	C#CCN(C)CCCS(=O)(=O)N1CCC(Nc2nc(N)c(C(=O)c3c(F)cccc3F)s2)CC1 [Example V65]	30
87	COCCNCCCS(=O)(=O)N1CCC(Nc2nc(N)c(C(=O)c3c(F)cccc3F)s2)CC1 [Example V67]	21
85	Nc1nc(NC2CCN(S(=O)(=O)CCCN3CCC(O)C3)CC2)sc1C(=O)c1c(F)cccc1F (stereo not drawn) [Example V68]	10
81	Nc1nc(NC2CCN(S(=O)(=O)CCCN3CCCCCC3)CC2)sc1C(=O)c1c(F)cccc1F [Example V69]	54
89	CC(C)[C@H](CO)NCCCS(=O)(=O)N1CCC(Nc2nc(N)c(C(=O)c3c(F)cccc3F)s2)CC1 [Example V70]	2
85	Nc1nc(NC2CCN(S(=O)(=O)CCCN[C@@H]3CCCC[C@@H]3CO)CC2)sc1C(=O)c1c(F)cccc1F [Example V71]	5
90	Nc1nc(NC2CCN(S(=O)(=O)CCCNC3CCCCC3)CC2)sc1C(=O)c1c(F)cccc1F [Example V72]	14
82	Nc1nc(NC2CCN(S(=O)(=O)CCCNCCCN3CCCC3)CC2)sc1C(=O)c1c(F)cccc1F [Example V73]	0
82	C=CCN1CCN(CCCS(=O)(=O)N2CCC(Nc3nc(N)c(C(=O)c4c(F)cccc4F)s3)CC2)CC1 [Example V74]	44
88	Nc1nc(NC2CCN(S(=O)(=O)CCCNC3CCCC3)CC2)sc1C(=O)c1c(F)cccc1F [Example V75]	19
72	Nc1nc(NC2CCN(S(=O)(=O)CCCN3CCCC(O)C3)CC2)sc1C(=O)c1c(F)cccc1F (stereo not drawn) [Example V77]	7
78	CC(O)CCNCCCS(=O)(=O)N1CCC(Nc2nc(N)c(C(=O)c3c(F)cccc3F)s2)CC1 (stereo not drawn) [Example V81]	5
79	CCC(O)CNCCCS(=O)(=O)N1CCC(Nc2nc(N)c(C(=O)c3c(F)cccc3F)s2)CC1 (stereo not drawn) [Example V83]	0
82	CCCCNCCCS(=O)(=O)N1CCC(Nc2nc(N)c(C(=O)c3c(F)cccc3F)s2)CC1 [Example V85]	29
61	CNCCCS(=O)(=O)N1CCC(Nc2nc(N)c(C(=O)c3c(F)cccc3F)s2)CC1 [Example V86]	22
80	NC(=O)[C@@H]1CCCN1CCCS(=O)(=O)N1CCC(Nc2nc(N)c(C(=O)c3c(F)cccc3F)s2)CC1 [Example V87]	3
77	Nc1nc(NC2CCN(S(=O)(=O)CCCN3CCOCC3)CC2)sc1C(=O)c1c(F)cccc1F [Example V88]	17
81	Nc1nc(NC2CCN(S(=O)(=O)CCCNCCO)CC2)sc1C(=O)c1c(F)cccc1F [Example V91]	13
81	N#CCCNCCCS(=O)(=O)N1CCC(Nc2nc(N)c(C(=O)c3c(F)cccc3F)s2)CC1 [Example V92]	9
84	CC(C)NCCCS(=O)(=O)N1CCC(Nc2nc(N)c(C(=O)c3c(F)cccc3F)s2)CC1 [Example V93]	11
69	CN(C)C1CCN(CCCS(=O)(=O)N2CCC(Nc3nc(N)c(C(=O)c4c(F)cccc4F)s3)CC2)C1 (stereo not drawn) [Example V99]	0
80	Nc1nc(NC2CCN(S(=O)(=O)CCCN3CCSC3)CC2)sc1C(=O)c1c(F)cccc1F [Example V101]	22
80	CC1CCN(CCCS(=O)(=O)N2CCC(Nc3nc(N)c(C(=O)c4c(F)cccc4F)s3)CC2)CC1 [Example V102]	89
84	C=CCNCCCS(=O)(=O)N1CCC(Nc2nc(N)c(C(=O)c3c(F)cccc3F)s2)CC1 [Example V103]	37
86	Nc1nc(NC2CCN(S(=O)(=O)CCCN3CCSCC3)CC2)sc1C(=O)c1c(F)cccc1F [Example V104]	42
